In patent publication US12491170B2, “Stable treprostinil prodrugs” (United Therapeutics Corporation, priority 2020, dated 2025):
Read-outs that look alike come from different tables or passages of the source.

Experiments:
[1] = rat
[2] = Stability in liver microsomes, dog
[3] = dog
[4] = Stability in liver microsomes, rat
[5] = Stability in liver microsomes, human; conditions: for AUC: human
[6] = Stability in human subcutaneous skin homogenate; conditions: for AUC: human
Procedure: The pool of skin homogenate was prepared by combining equal volumes of three lots that were tested in the initial skin homogenate lot assessment experiments.
A stock solution of calcein-AM was first prepared at 5 mM in DMSO, followed by a serial dilution into methanol at a concentration of 100 μM. 495 μL of skin homogenate was thawed and warmed to 37° C. A 5 μL aliquot of the 100 μM calcein-AM solution was spiked into the skin homogenate, for a final calcein-AM dosing concentration of 1 μM. After briefly mixing, 150 μL aliquots were removed in triplicate and transferred to 96-well Falcon plates. The plates were placed onto a Thermomixer and maintained at 37° C., with gentle shaking for the duration of the experiment. At each time point (0, 15, 30, 60, and 120 minutes), the plate was removed from the Thermomixer and transferred to a FLUOstar® plate reader, and the formation of calcein (Sigma) was monitored by fluorescence (490/515 nm). Calibration standards of calcein were prepared in distilled water by serial dilutions of a calcein DMSO stock at final concentrations ranging from 1 μM to 1 nM. All samples and standards were read concurrently (Table 13).
For each of the test articles, 495 μL of skin homogenate was added to triplicate centrifuge tubes. To each tube, 5 μL of a 100 μM solution of test article was added, for a final test article dosing concentration of 1 μM. The tubes were placed onto a Thermomixer and maintained at 37° C. with gentle shaking for the duration of the experiment. At each time point (0, 30, 60, and 120 minutes), a 100 μL aliquot was removed from each tube and combined with 200 μL of acetonitrile to stop the stability reaction. The tubes were mixed and centrifuged at 3000 rpm for 10 minutes. Aliquots of supernatant were removed and diluted 1:1 with distilled water containing internal standard (2 μM treprostinil-d4). Calibration standards for the treprostinil analysis were prepared for each test article in a surrogate matrix (supernatant from a mixture of 1:2 human plasma:acetonitrile), at concentrations ranging from 1 μM to 1 nM. Calibration standards were also diluted 1:1 with distilled water containing internal standard. The disappearance of each individual test article was monitored, as well as the formation of treprostinil (Table 14 and Table 15).

Structure (SMILES) | AUC [1] [µmol·min/L] | Trep Concentration 0 min [2] [µM] | Trep Concentration 10 min [2] [µM] | Trep Concentration 20 min [2] [µM] | Trep Concentration 60 min [2] [µM] | AUC [3] [µmol·min/L] | Trep Concentration 0 min [4] [µM] | Trep Concentration 10 min [4] [µM] | Trep Concentration 20 min [4] [µM] | Trep Concentration 30 min [4] [µM] | Trep Concentration 60 min [4] [µM] | Trep Concentration 0 min [5] [µM] | Trep Concentration 20 min [5] [µM] | Trep Concentration 30 min [5] [µM] | Trep Concentration 60 min [5] [µM] | AUC [5] [µmol·min/L] | Trep Concentration 0 min [6] [µM] | Trep Concentration 30 min [6] [µM] | Trep Concentration 60 min [6] [µM] | AUC [6] [µmol·min/L] | other results
CCCCCC(O)CCC1C(OC)CC2Cc3c(cccc3OCC(=O)O)CC21 (stereo not shown) [LIII] | 1.47 | 0.0189 | 0.0224 | 0.0209 | 0.0222 | 1.33 | 0.0196 | 0.0177 | 0.024 | 0.0274 | 0.0271 | 0.0216 | 0.0343 | 0.0459 | 0.0354 | 2.24 | 0.0159 | 0.0165 | 0.0165 | 1.99 | Trep Concentration 10 min [5]: 0.0336 µM
CCCCCC(CCC1C(O)CC2Cc3c(cccc3OCC(=O)O)CC21)OCOC(=O)C(C)(C)C (stereo not shown) [LII] | 51.78 | 0.758 | 0.885 | 0.868 | 0.84 | 50.60 | 0.937 | 0.938 | 0.892 | 0.838 | 0.802 | 0.948 | 0.679 | 0.538 | 0.346 | 35.46 | 0.0201 | 1.05 | 1.22 | 125.70 | Trep Concentration 30 min [2]: 0.834 µM; Trep Concentration 10 min [5]: 0.798 µM; Trep Concentration 120 min [6]: 1.3 µM
CCCCCC(CCC1C(O)CC2Cc3c(cccc3OCC(=O)O)CC21)OC(=O)N1CCCCC1 (stereo not shown) [XIX] | 0.00 | 0 | 0 | 0 | 0 | 0.00 | 0 | 0 | 0 | 0 | 0 | 0 | 0.014 | 0.018 | 0.022 | 0.83 | 0 | 0 | 0 | 0.00 | Trep Concentration 30 min [2]: 0 µM; Trep Concentration 10 min [5]: 0 µM; Trep Concentration 120 min [6]: 0 µM
CCCCCC(CCC1C(O)CC2Cc3c(cccc3OCC(=O)O)CC21)OC(=O)OC(C)C (stereo not shown) [XVII] | 29.40 | 0.45 | 0.57 | 0.66 | 0.85 | 42.10 | 0.29 | 0.46 | 0.48 | 0.53 | 0.53 | 0.55 | 0.5 | 0.39 | 0.27 | 25.10 | 0 | 0.064 | 0.12 | 13.92 | Trep Concentration 30 min [2]: 0.74 µM; Trep Concentration 10 min [5]: 0.55 µM; Trep Concentration 120 min [6]: 0.22 µM
CCCCCC(CCC1C(O)CC2Cc3c(cccc3OCC(=O)O)CC21)OC(=O)OCC (stereo not shown) [XVI] | 54.90 | 0.66 | 0.95 | 1.01 | 0.92 | 56.90 | 0.98 | 0.97 | 0.92 | 0.91 | 0.86 | 0.69 | 0.49 | 0.41 | 0.25 | 26.30 | 0 | 0.17 | 0.31 | 34.95 | Trep Concentration 30 min [2]: 1.01 µM; Trep Concentration 10 min [5]: 0.6 µM; Trep Concentration 120 min [6]: 0.53 µM
CCCCCC(O)CCC1C(OC(=O)CCC(=O)O)CC2Cc3c(cccc3OCC(=O)O)CC21 (stereo not shown) [XXII] | 0.24 | 0 | 0 | 0 | 0 | 0.00 | 0 | 0 | 0 | 0 | 0.016 | 0 | 0 | 0 | 0 | 0.00 | 0 | 0 | 0 | 0.00 | Trep Concentration 30 min [2]: 0 µM; Trep Concentration 10 min [5]: 0 µM; Trep Concentration 120 min [6]: 0 µM
CCCCC[C@@H](CC[C@@H]1[C@H]2Cc3cccc(OCC(=O)O)c3C[C@H]2C[C@H]1O)OC(=O)[C@@H](N)C(C)C [XXIX] | 0.56 | 0 | 0.012 | 0.0177 | 0.0334 | 1.30 | 0 | 0.00463 | 0.00443 | 0.0102 | 0.0178 | 0.00482 | 0.0168 | 0.0173 | 0.0265 | 1.05 | 0 | 0.0333 | 0.0488 | 5.47 | Trep Concentration 30 min [2]: 0.025 µM; Trep Concentration 120 min [6]: 0.0759 µM
CCCCCC(CCC1C(O)CC2Cc3c(cccc3OCC(=O)O)CC21)OC(=O)OCC(=O)O (stereo not shown) [XXXIX] | 0.00 | 0 | 0 | 0 | 0 | 0.00 | 0 | 0 | 0 | 0 | 0 | 0 | 0 | 0 | 0 | 0.00 | 0 | 0 | 0 | 0.00 | Trep Concentration 30 min [2]: 0 µM; Trep Concentration 10 min [5]: 0 µM; Trep Concentration 120 min [6]: 0 µM
